Results published in patent US3980794A, “Method for promoting growth of poultry with 3-(5-nitro-2-imidazolyl)pyrazoles” (Eli Lilly and Company, priority 1975, dated 1976).
≈ marks a conversion by molar mass, not a printed value.

Legend:
[1] = tested on: Veillonella alcalescens 1; assay: Susceptibility of anaerobic bacteria, agar dilution; format: cell-based; settings: Veillonella parvula, 1, 24 h, read-out: 24 Hr. Minimum Inhibitory Concentration
[2] = tested on: Clostridium ramosum 1313; assay: as above; format: cell-based; settings: Thomasclavelia ramosa, 1313, 24 h, read-out: 24 Hr. Minimum Inhibitory Concentration
[3] = tested on: Clostridium innocuum 1373; assay: as above; format: cell-based; settings: [Clostridium] innocuum, 1373, 24 h, read-out: 24 Hr. Minimum Inhibitory Concentration
[4] = tested on: Propionibacterium acnes 79; assay: as above; format: cell-based; settings: Cutibacterium acnes, 79, 24 h, read-out: 24 Hr. Minimum Inhibitory Concentration
[5] = tested on: Eubacterium aerofaciens 1235; assay: as above; format: cell-based; settings: Collinsella aerofaciens, 1235, 24 h, read-out: 24 Hr. Minimum Inhibitory Concentration
[6] = tested on: Clostridium perfringens 81; assay: microbe, parasite or virus in culture; format: cell-based; settings: Clostridium perfringens, 81, 24 h, read-out: 24 Hr. Minimum Inhibitory Concentration
[7] = tested on: Fusobacterium necrophorum 13859; assay: Susceptibility of anaerobic bacteria, agar dilution; format: cell-based; settings: Fusobacterium necrophorum, 13859, 24 h, read-out: 24 Hr. Minimum Inhibitory Concentration
[8] = tested on: Peptococcus anaerobius 1428; assay: as above; format: cell-based; settings: 24 h, read-out: 24 Hr. Minimum Inhibitory Concentration
[9] = tested on: Bacteroides fragilis sp. vulgatus 1563; assay: as above; format: cell-based; settings: Bacteroides fragilis, 24 h, read-out: 24 Hr. Minimum Inhibitory Concentration
[10] = tested on: Actinomyces bovis 13684; assay: as above; format: cell-based; settings: Actinomyces bovis, 13684, 24 h, read-out: 24 Hr. Minimum Inhibitory Concentration
[11] = tested on: Bacteroides fragilis sp. fragilis 1936B; assay: as above; format: cell-based; settings: Bacteroides fragilis, 24 h, read-out: 24 Hr. Minimum Inhibitory Concentration
[12] = tested on: Bacteroides fragilis sp. fragilis 1877; assay: as above; format: cell-based; settings: Bacteroides fragilis, 24 h, read-out: 24 Hr. Minimum Inhibitory Concentration
[13] = tested on: Peptostreptococcus intermedius 1264; assay: as above; format: cell-based; settings: 24 h; Peptostreptococcus intermedius 1264; read-out: 24 Hr. Minimum Inhibitory Concentration
[14] = tested on: Salmonella typhimurium; assay: Control of infections caused by Salmonella typhimurium in chickens, subcutaneous (Experiment 2); format: in vivo; settings: Salmonella enterica, sc, 144 h, 6 days, read-out: Survival Ratio (converted); for responders at 7.5 mg/kg: 7.5 mg./kg. subcutaneous; for responders at 15 mg/kg: 15 mg./kg. subcutaneous; for responders at 30 mg/kg: 30 mg./kg. subcutaneous; for responders at 60 mg/kg: 60 mg./kg. subcutaneous
Protocol: The efficacy of the novel compounds in the control of infections caused by Salmonella typhimurium in chickens was evaluated in the following manner.
The test was carried out using day-old chicks weighing approximately 35 g. each. The chicks were divided into groups of 5 chicks per each dosage level. A portion of the chicks received the test compound which was suspended in 0.2 ml. of polyethylene glycol 200 and administered subcutanusly in the neck. […] All the chicks were challenged with a 1:200 dilution of a culture of the organism, 0.1 ml. of the dilution being injected into each chick in the leg intramuscularly. […] The test compounds are identified in the same manner as set forth in Experiment 1.
In the chart, column 1 lists the compounds tested; column 2, the dosage of test compound in mg./kg.; and column 3, the survival ratio.

[15] = tested on: Bacteroides fragilis sp. vulgatus 1211; assay: Susceptibility of anaerobic bacteria, agar dilution; format: cell-based; settings: Bacteroides fragilis, 24 h, read-out: 24 Hr. Minimum Inhibitory Concentration
[16] = tested on: Propionibacterium acnes 44; assay: as above; format: cell-based; settings: Cutibacterium acnes, 24 h; Propionibacterium acnes 44; read-out: 24 Hr. Minimum Inhibitory Concentration
[17] = tested on: Clostridium septicum 1128; assay: as above; format: cell-based; settings: 24 h, read-out: 24 Hr. Minimum Inhibitory Concentration
[18] = tested on: Clostridium septicum bovine; assay: as above; format: cell-based; settings: 24 h, read-out: 24 Hr. Minimum Inhibitory Concentration
[19] = tested on: Fusobacterium symbiosum 1470; assay: as above; format: cell-based; settings: Fusobacterium, 1470, 24 h, read-out: 24 Hr. Minimum Inhibitory Concentration
[20] = tested on: Bacteroides fragilis sp. thetaiotaomicron 1438; assay: as above; format: cell-based; settings: Bacteroides fragilis, 24 h, read-out: 24 Hr. Minimum Inhibitory Concentration

SMILES | MIC [1] [µg/mL] | MIC [2] [µg/mL] | MIC [3] [µg/mL] | MIC [4] [µg/mL] | MIC [5] [µg/mL] | MIC [6] [µg/mL] | MIC [7] [µg/mL] | MIC [8] [µg/mL] | MIC [9] [µg/mL] | MIC [10] [µg/mL] | MIC [11] [µg/mL] | MIC [12] [µg/mL] | MIC [13] [µg/mL] | responders at 7.5 mg/kg [14] [%] | responders at 15 mg/kg [14] [%] | responders at 30 mg/kg [14] [%] | responders at 60 mg/kg [14] [%] | MIC [15] [µg/mL] | MIC [16] [µg/mL] | MIC [17] [µg/mL] | other results
Cn1c([N+](=O)[O-])cnc1-c1nn(CCO)c(N)c1C#N [Compound 14, 5-Amino-1-(2-hydroxyethyl)-3-(1-methyl-5-nitro-2-imidazolyl)pyrazole-4-carbonitrile] | < 0.125 | < 0.125 | < 0.125 | < 0.125 | < 0.125 | < 0.125 | < 0.125 | < 0.125 | < 0.125 | < 0.125 | < 0.125 | < 0.125 | 1 (≈ 3.61 µM) | 20 | 6.67 | 40 | 93.3 | < 0.125 | > 32 | < 0.125 | MIC [18]: < 0.125 µg/mL; MIC [19]: < 0.125 µg/mL; MIC [20]: < 0.125 µg/mL
CC=CC=Nc1c(C#N)c(-c2ncc([N+](=O)[O-])n2C)nn1C [Compound 18, 5-(2-butenylideneamino)-1-methyl-3-(1-methyl-5-nitro-2-imidazolyl)pyrazole-4-carbonitrile] | < 0.125 | < 0.125 | < 0.125 | < 0.125 | < 0.125 | < 0.125 | < 0.125 | < 0.125 | < 0.125 | < 0.125 | < 0.125 | < 0.125 | 0.25 (≈ 0.835 µM) | 0 | 53.3 | 66.7 | 66.7 | < 0.125 | > 32 | < 0.125 | MIC [18]: < 0.125 µg/mL; MIC [19]: < 0.125 µg/mL; MIC [20]: < 0.125 µg/mL
